Patent US20220187282A1, “CARDIOMYOCYTE PROLIFERATION” (The Council of the Queensland Institute of Medical Research, priority 2019, published 2022)
Structures can show the parent of a compound that is named as a salt.

Experiments:
[1] = system: 2D hPSC-CM; test: 2D hPSC-CM culture, Ki-67 image cytometry (proliferation, number, size); format: cell-based, human; conditions: 24 h, 0.5 M mevalonic acid 5-phosphate, 20 μM GGPP, 20 μM FPP, 20 μM squalene
Protocol: Day 15 dissociated differentiation cultures were plated at 100,000 cells/cm2 in 0.1% gelatin coated 96-well tissue culture plates in CTRL medium. For 3 day incubation experiments, after 2 days of culture in CTRL medium, cells were then treated with 10 μM simvastatin in maturation medium for a further 3 days. For 1 day incubation experiments, after 1 day of culture in CTRL medium, cells were treated with 10 μM simvastatin, 0.5 M (±)-Mevalonic acid 5-phosphate lithium salt hydrate, 20 μM geranylgeranyl pyrophosphate, 20 μM farnesyl pyrophosphate and/or 20 μM squalene in maturation medium for a further day.
hCOs were fixed for 10 min with 1% paraformaldehyde (Sigma) at room temperature and washed 3× with PBS, after which they were incubated with primary antibodies (see Star Methods Table) in Blocking Buffer, 5% FBS and 0.2% Triton-X-100 (Sigma) in PBS for 1-2 hours at room temperature. Cells were then washed in Blocking Buffer 2× for 3 min and subsequently incubated with secondary antibodies (see Star Methods Table) and Hoechst33342 (1:1000) for 1 hour at room temperature. They were washed in Blocking Buffer 2× and imaged.
For screening hCOs were imaged using a Leica DMi8 high content imaging microscope for in situ imaging. Custom batch processing files were written in Matlab R2013a (Mathworks) to analyse the number of cardiomyocytes, identify the nuclei of proliferating (Ki-67+) cardiomyocytes and determine the average size of the cardiomyocytes, and export the batch data to an Excel (Microsoft) spreadsheet.
Initial experiments were performed in immature proliferative 2D hPSC-CM (FIG. 6A) using high content imaging (FIG. 6B) and image cytometry analysis (FIG. 13A). HMGCR mediated production of cholesterol metabolites was inhibited with 10 μM simvastatin for 3 days.
In order to determine which metabolites in the mevalonate pathway are critical for proliferation, we performed experiments over 24 hours to enable more precise control of metabolites and to measure the primary effects of the manipulations. In these experiments, the mevalonate pathway was inhibited using 10 μM simvastatin, and then different metabolites were provided within the medium (highlighted in red in FIG. 6F).

[2] = system: mature hCOs; test: mature hCO, cardiomyocyte proliferation (Ki-67 intensity, Ki-67+ α-actinin cardiomyocytes); format: cell-based, human
Protocol: hCOs were cultured in CTRL medium for formation for 5 days and then either kept in CTRL medium culture or changed to maturation medium (Mills et al., 2017a) comprising DMEM without glucose, glutamine and phenol red (ThermoFisher Scientific) supplemented with 4% […](without insulin) (ThermoFisher Scientific), 1% GlutaMAX (ThermoFisher Scientific), 200 μM L-ascorbic acid 2-phosphate sesquimagnesium salt hydrate and 1% Penicillin/Streptomycin (ThermoFisher Scientific), 1 mmol/L glucose and 100 μmon palmitic acid (conjugated to bovine serum albumin within B27 by incubating for 2h at 37° C., Sigma) with changes every 2-3 days.
Whole-Mount Immunostaining hCOs were fixed for 60 min with 1% paraformaldehyde (Sigma) at room temperature and washed 3× with PBS, after which they were incubated with primary antibodies (see Star Methods Table) in Blocking Buffer, 5% FBS and 0.2% Triton-X-100 (Sigma) in PBS overnight at 4° C. Cells were then washed in Blocking Buffer 2× for 2 h and subsequently incubated with secondary antibodies (see Star Methods Table) and Hoechst33342 (1:1000) overnight at 4° C. They were washed in Blocking Buffer 2× for 2 h and imaged in situ or mounted on microscope slides using Fluoromount-G (Southern Biotech).
For screening hCOs were imaged using a Leica DMi8 high content imaging microscope for in situ imaging. Custom batch processing files were written in Matlab R2013a (Mathworks) to remove the background, calculate the image intensity, and export the batch data to an Excel (Microsoft) spreadsheet.
For more detailed images an Olympus IX81 confocal microscope was used for mounted hCO imaging. For cell cycle analysis experiments 3 random fields of view were imaged and manually quantified for proliferation. These were added together to calculate the percentage of hPSC-CM proliferation in each hCO.
Hits were next validated in mature hCOs using a targeted concentration range based on their active concentrations in the initial immature hCO screen (FIG. 3A). Proliferation markers were quantified using high magnification confocal imaging as we found flow cytometry to be inaccurate in hCO (data not shown). Compounds 3, 63 and 65 had no impact on contractile force (FIG. 3B) at concentrations of 3 μM, 0.3 μM and 1 μM, respectively. […] The effects of both compound 3 and compound 65 were reversible, with proliferation ceasing within 5 days of compound withdrawal (FIG. 8B). Therefore, compound 3 (FIG. 3G) and compound 65 (Goldberg et al., 2009) (FIG. 3H) are both capable of inducing bona fide cardiomyocyte proliferation in mature hCOs without adversely affecting contractile properties.

[3] = system: mature hCO; test: single organoid quantitative proteomics of mature hCO; format: cell-based, human; conditions: mature hCO proteomics
Protocol: Single hCO were washed 2× in PBS and snap frozen and stored at −80° C. Tissues were lysed in by tip-probe sonication in 1% SDS containing 100 mM Tris pH 8.0, 10 mM tris(2-carboxyethyl)phosphine, 40 mM 2-chloroacetamide and heated to 95° C. for 5 min. Proteins were purified using a modified Single-Pot Solid-Phase-enhanced Sample Preparation (SP3) strategy (Hughes et al., 2014). Briefly, Proteins were bound to Sera-Mag carboxylate coated paramagnetic beads in 50% acetonitrile containing 0.8% formic acid (v/v) (ThermoFisher Scientific). The beads were washed twice with 70% ethanol (v/v) and once with 100% acetonitrile. Proteins were digested on the beads in 100 mM Tris pH 7.5 containing 10% 2,2,2-Trifluoroethanol overnight at 37° C. with 200 ng of sequencing grade LysC (Wako Chemicals) and trypsin (Sigma). Beads were removed and peptides acidified to 1% trifluoroacetic acid prior to purification by styrene divinyl benzene-reversed phase sulfonated solid phase extraction microcolumns. Peptides were spiked with iRT peptides (Biognosys) and analysed on an Easy-nLC1200 coupled to a Q-Exactive HF in positive polarity mode. Peptides were separated using an in-house packed 75 μm×50 cm pulled column (1.9 μm particle size, C18AQ; Dr Maisch) with a gradient of 2-35% acetonitrile containing 0.1% FA over 120 min at 300 nL/min at 60° C. The instrument was operated in data-independent acquisition (DIA) mode essentially as described previously (Bruderer et al., 2017). Briefly, an MS1 scan was acquired from 350-1650 m/z (120,000 resolution, 3e6 AGC, 50 ms injection time) followed by 20 MS/MS variable sized isolation windows with HCD (30,000 resolution, 3e6 AGC, 27 NCE). A spectral library was created by fractionating a pooled mix of peptides from 10 separate hCO on an inhouse packed 320 μm×25 cm column (3 μm particle size, BEH; Waters) with a gradient of 2-40% acetonitrile containing 10 mM ammonium formate over 60 min at 6 μL/min using an Agilent 1260 HPLC. A total of 12 concatenated fractions were analysed using the identical LC-MS/MS conditions above except the instrument was operated in data-dependent acquisition (DDA) mode. Briefly, an MS1 scan was acquired from 350-1650 m/z (60,000 resolution, 3e6 AGC, 50 ms injection time) followed by 20 MS/MS with HCD (1.4 m/z isolation, 15,000 resolution, 1e5 AGC, 27 NCE). DDA data were processed with Andromeda in MaxQuant v1.5.8.3 (Cox and Mann, 2008) against the human UniProt database (January 2016) using all default settings with peptide spectral matches and protein false discovery rate (FDR) set to 1%. DIA data were processed with Spectronaut v11 (Bruderer et al., 2015) using all default settings with precursor and protein FDR set to 1% and quantification performed at MS2.
Proteomic data were Log 2 transformed and median normalised. Removal of unwanted variation method (RUV) was applied to remove any batch effects (Gagnon-Bartsch et al., 2013). Differential abundance was determined with two sample t-tests with FDR-based multiple hypothesis testing correction. GO analysis was performed with DAVID v6.8 and gene ontology terms from BP_FAT (Huang da et al., 2009) and heat-maps and hierarchical clustering was performed using GENE-E (Broad Institute).
In order to determine the biological processes driving the pro-proliferative effects of our hit compounds, we performed RNA-sequencing (RNA-seq) and single organoid quantitative proteomics (FIG. 4A). These analyses were performed on hCOs treated with compounds 3, 63 and 65 at concentrations of 3 μM, 0.3 μM and 1 μM, respectively. RNA-seq for hCO treated with compounds 3 and 65 clustered distinctly in principal component analysis (FIG. 4B) and regulated a total of 239 and 207 genes (FIG. 9A), respectively.

[4] = system: adult rodent cardiomyocyte; conditions: Mohamed et al., 2018; cited from earlier work
[5] = system: kinases; conditions: Fan et al., 2016; cited from earlier work

Compound: CC(O)(CCOP(=O)(O)O)CC(=O)O (racemic) [mevalonate, (±)-Mevalonic acid 5-phosphate lithium salt hydrate, reference compound]
- rescue of proliferation under 10 μM simvastatin [1]: rescued proliferation
- proliferation in mature hCO ([2]; 0.5 mM, 2 days): induces proliferation

Compound: Cc1c[nH]c(-c2cnc(NCCNc3ccc(C#N)cn3)nc2-c2ccc(Cl)cc2Cl)n1 [CHIR99021, reference compound]
- proliferation in mature hCO, compound individually ([2]; 5 μM CHIR99021 or 1 μM compound 51 alone): failed to activate proliferation individually
- proliferation signature proteins (cell cycle network, mevalonate enzymes, nuclear transporters) [3]: only the “cell cycle network” proteins were induced

Compound: NC(=O)c1ccc(-c2nc(-c3ccc4c(c3)OCO4)c(-c3ccccn3)[nH]2)cc1 [SB431542]
- pro-proliferative activity alone [4]: not sufficient

Compound: CN1C(=O)c2sccc2N(C)c2nc(Nc3ccc(S(N)(=O)=O)cc3)ncc21 [XMU-MP-1, reference compound]
- proliferation in mature hCO in combination with GSK3 inhibition (Ki-67 intensity) ([2]; 5 μM CHIR99021 with 1 μM compound 51 or 1 μM XMU-MP-1): synergistic effect on proliferation
- off-target effects on cell cycle proteins [5]: PLK4 and AURKB

Compound: CC(C)=CCC/C(C)=C/CC/C(C)=C/COP(=O)(O)OP(=O)(O)O [farnesyl pyrophosphate]
- rescue of proliferation under 10 μM simvastatin [1]: incapable of rescuing proliferation

Compound: CC(C)=CCC/C(C)=C/CC/C(C)=C/CC/C(C)=C/COP(=O)(O)OP(=O)(O)O [geranylgeranyl pyrophosphate]
- rescue of proliferation under 10 μM simvastatin [1]: rescued proliferation

Compound: CC(C)=CCC/C(C)=C/CC/C(C)=C/CC/C=C(\C)CC/C=C(\C)CCC=C(C)C [squalene]
- rescue of proliferation under 10 μM simvastatin [1]: not
